Assay results taken from PubChem BioAssay (NCI).
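Interpolation was linear, between the two tested concentrations surrounding the appropriate level; five concentrations were tested over 48 hours in 96-well plates. At the GI50, growth is halved. TGI: total growth inhibition.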

Legend:
Test in all cases: NCI-60 cell line screen, 48 h
[1] = test system: K-562 leukemia
[2] = test system: HL-60(TB) leukemia
[3] = test system: A549 NSCLC
[4] = test system: RPMI-8226 leukemia
[5] = test system: HCT-15 colon
[6] = test system: NCI-H226 lung
[7] = test system: IGROV1 ovarian
[8] = test system: SK-MEL-2 melanoma
[9] = test system: NCI-H522 lung
[10] = test system: SF-268 CNS

SMILES | GI50 [1] | TGI [1] | GI50 [2] | TGI [2] | GI50 [3] | TGI [3] | GI50 [4] | TGI [4] | GI50 [5] | TGI [5] | GI50 [6] | TGI [6] | GI50 [7] | TGI [7] | GI50 [8] | TGI [8] | GI50 [9] | TGI [9] | TGI [10] | GI50 [10]
O=C(c1ccccc1)c1nn(-c2ccccc2)c2nc3nc(-c4ccccc4)cc(=O)n3nc12 | 21.2 µM | 66.7 µM | 15.2 µM | 42.4 µM | 26.5 µM | 81.4 µM | 21.4 µM | 50.8 µM | 36.3 µM | > 100 µM | 47.4 µM | > 100 µM | 25.6 µM | > 100 µM | 23.8 µM | 65.6 µM | 20.6 µM | 58.5 µM | – | –
CCCCS(=O)CC(CO)NC(=O)/C=C/c1c(C)[nH]c(=O)[nH]c1=O (stereo not drawn) | – | 82.1 µM | – | 21.5 µM | – | 87.1 µM | – | 59.2 µM | – | 183 µM | – | 34 µM | – | 35.4 µM | – | 23.4 µM | – | 21.4 µM | 20.8 µM | –
C[C@]12CCc3sc(-c4cccc(F)c4)nc3C1=CC[C@@H]1[C@@H]2CC[C@]2(C)C(=O)CC[C@@H]12 | 1.82 µM | 9.08 µM | 2 µM | 5.35 µM | 3.95 µM | 31.5 µM | 1.91 µM | 5.65 µM | 1.56 µM | 4.17 µM | – | – | 2.09 µM | 4.88 µM | 2.74 µM | 10.7 µM | 2.4 µM | 6.35 µM | 18.9 µM | 3.15 µM
O=C1CCCN1CCCN=c1cc2n(-c3ccc(Cl)cc3)c3ccccc3nc-2cc1Nc1ccc(Cl)cc1 | – | 30 µM | – | 15.8 µM | – | 35.3 µM | – | 28.1 µM | – | 20 µM | – | 32.3 µM | – | 24.9 µM | – | 30.7 µM | – | 16.6 µM | > 100 µM | –
Cc1c(N=NN(C)C)cc[n+]([O-])c1C | – | > 100 µM | – | > 100 µM | – | > 100 µM | – | > 100 µM | – | > 100 µM | – | > 100 µM | – | > 100 µM | – | > 100 µM | – | > 100 µM | > 100 µM | –
Cc1cc2c(C(C)C)c(O)c(O)c(C=Nc3ccccc3)c2c(O)c1-c1c(C)cc2c(C(C)C)c(O)c(O)c(C=Nc3ccccc3)c2c1O | – | > 100 µM | – | > 100 µM | – | > 100 µM | – | > 100 µM | – | > 100 µM | – | > 100 µM | – | > 100 µM | – | > 100 µM | – | > 100 µM | > 100 µM | –
CC(C)[C@](O)(C(=O)OCC1=CCN2CC[C@@H](O)[C@@H]12)[C@H](C)O | – | > 375 µM | – | > 375 µM | – | > 375 µM | – | > 375 µM | – | > 375 µM | – | > 375 µM | – | > 375 µM | – | > 375 µM | – | > 375 µM | > 375 µM | –
CCc1c(C)c2ccc(OCC(=O)N=Nc3c(O)[nH]c4ccccc34)c(C)c2oc1=O | 1.19 µM | > 33.3 µM | – | – | > 33.3 µM | > 33.3 µM | 0.936 µM | 2.27 µM | – | – | > 33.3 µM | > 33.3 µM | – | – | > 33.3 µM | > 33.3 µM | 0.77 µM | 1.81 µM | – | –
